The test concerns the target BttxB (Clostridium botulinum, UniProt P10844). It is filed as biochemical.

BttxB, sequence (P10844 2-441 limits assumed): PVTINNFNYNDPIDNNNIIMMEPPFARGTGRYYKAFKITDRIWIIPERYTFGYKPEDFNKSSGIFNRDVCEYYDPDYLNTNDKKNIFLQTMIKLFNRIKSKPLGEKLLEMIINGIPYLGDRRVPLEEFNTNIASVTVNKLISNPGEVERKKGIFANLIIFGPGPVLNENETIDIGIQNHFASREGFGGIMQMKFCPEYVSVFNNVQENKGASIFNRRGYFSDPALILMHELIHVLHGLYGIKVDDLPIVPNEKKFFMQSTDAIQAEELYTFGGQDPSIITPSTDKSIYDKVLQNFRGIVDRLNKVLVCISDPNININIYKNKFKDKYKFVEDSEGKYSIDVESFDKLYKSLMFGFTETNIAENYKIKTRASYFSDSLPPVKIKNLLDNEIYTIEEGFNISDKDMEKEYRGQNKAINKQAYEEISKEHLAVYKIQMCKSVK

On to `CC(C)C[C@H](NC(=O)CNC(=O)[C@H](C)NC(=O)[C@H](CCCNC(=N)N)NC(=O)[C@H](CO)NC(=O)[C@H](CO)NC(=O)[C@H](CCCNC(=N)N)NC(=O)[C@@H](NC(=O)[C@H](CCCCN)NC(=O)[C@H](C)NC(=O)[C@H](CCCCN)NC(=O)[C@H](C)NC(=O)[C@H](CCCNC(=N)N)NC(=O)[C@@H](NC(=O)[C@H](CCCCN)NC(=O)CNC(=O)CNC(=O)[C@H](CCC(N)=O)NC(=O)[C@H](CCCCN)NC(=O)CNC(=O)[C@H](CCCNC(=N)N)NC(=O)CNC(=O)[C@H](C)N)C(C)C)[C@@H](C)O)C(=O)N[C@@H](CCC(N)=O)C(=O)N[C@@H](Cc1ccccc1)C(=O)N1CCC[C@H]1C(=O)N[C@H](C(=O)NCC(=O)N[C@@H](CCCNC(=N)N)C(=O)N[C@H](C(=O)N[C@@H](Cc1c[nH]cn1)C(=O)N[C@@H](CCCNC(=N)N)C(=O)N[C@@H](CC(C)C)C(=O)N[C@@H](CC(C)C)C(=O)N[C@@H](CCCNC(=N)N)C(=O)N[C@@H](CCCCN)C(=O)NCC(=O)N[C@@H](CC(N)=O)C(=O)N[C@@H](Cc1ccc(O)cc1)C(=O)O)C(C)C)C(C)C` [B-I], for which the “substrate of BttxB or not” value is given as “not a substrate”.

As for “AGRGKQGGKVRAKAKTRSSRAGLQFPVGRVHRLLRK [Peptide 36]”, the “effectiveness as inhibitor of BttxB activity relative to B-I” value is recorded as “about 50%”.

In the case of RPKPQQFFGLM [Substance P], the “inhibition of BttxB (in words)” value is recorded as “inhibitor”.
